# Measured values: US20230085307A1, “PYRIDAZINONE COMPOUND AND HERBICIDE” (NISSAN CHEMICAL CORPORATION, priority 2019, published 2023)
# Experiments:
# chickweed [1] = experiment: Test Example 4: herbicidal effect by soil treatment (Table 19, symbol P); assay type: in vivo, common chickweed (Stellaria media)
# Summary of the method: (§1)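 Step 1: sow seeds in sterilized diluvial soil, cover ~1.5 cm. Step 2: spray diluted emulsion onto soil surface at predetermined rate. Step 3: greenhouse, 25–30° C, three weeks. Step 4: grade effect on each plant by earlier criteria.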
# green foxtail [2] = experiment: Test Example 5: herbicidal effect by foliage application, plastic box (Table 20, symbol G); assay type: in vivo, green foxtail (Setaria viridis); details: foliage application, three weeks after application
# Summary of the method: (§2)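 Foliar spray test: emulsion formulation diluted in water to a set application rate, sprayed onto 14-day-old plants raised in diluvial soil at 25° C to 30° C under glass. Both herbicidal effect and crop effect rated visually three weeks later.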
# blackgrass [3] = experiment: Test Example 4: herbicidal effect by soil treatment (Table 19, symbol J); assay type: in vivo, blackgrass (Alopecurus myosuroides)
# Summary of the method: as §1
# late watergrass = experiment: Test Example 1: herbicidal activity, application before weed generation under submerged conditions (Table 16, symbol A); assay type: in vivo, late watergrass (Echinochloa oryzicola); details: 320 g/ha applied herbicide
# Summary of the method: (§3)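 Emulsion formulation, water-diluted to set dose, was put onto the flooded surface (4 cm depth, alluvial soil) the same day weeds were sown and 2.5-leaf rice transplanted. After 3 weeks at 25-30 °C under glass, each species was rated 0 (≤5% kill) to 5 (≥90% kill).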
# green foxtail [4] = experiment: Test Example 4: herbicidal effect by soil treatment (Table 19, symbol G); assay type: in vivo, green foxtail (Setaria viridis)
# Summary of the method: as §1
# rice flat sedge = experiment: Test Example 3: herbicidal effect by foliage application, Wagner pot (Table 18, symbol E); assay type: in vivo, rice flat sedge (Cyperus iria); details: 320 g/ha
# Summary of the method: (§4)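 Plants were sown in alluvial soil held under 0.1–0.5 cm standing water and grown 14 days in a greenhouse at 25–30 °C. An emulsifiable formulation, water-diluted to the set dose, was then sprayed onto the foliage, and effects were scored three weeks later using previously defined criteria.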
# persian speedwell [5] = experiment: Test Example 5: herbicidal effect by foliage application, plastic box (Table 20, symbol R); assay type: in vivo, Persian speedwell (Veronica persica); details: foliage application, three weeks after application
# Summary of the method: as §2
# southern crabgrass [6] = experiment: Test Example 5: herbicidal effect by foliage application, plastic box (Table 20, symbol F); assay type: in vivo, southern crabgrass (Digitaria ciliaris); details: foliage application, three weeks after application
# Summary of the method: as §2
# velvetleaf [7] = experiment: Test Example 5: herbicidal effect by foliage application, plastic box (Table 20, symbol M); assay type: in vivo, velvetleaf (Abutilon theophrasti); details: foliage application, three weeks after application
# Summary of the method: as §2
# wild oat [8] = experiment: Test Example 4: herbicidal effect by soil treatment (Table 19, symbol I); assay type: in vivo, wild oat (Avena fatua)
# Summary of the method: as §1
# lambsquarters [9] = experiment: Test Example 4: herbicidal effect by soil treatment (Table 19, symbol O); assay type: in vivo, lambsquarters (Chenopodium album)
# Summary of the method: as §1
# southern crabgrass [10] = experiment: Test Example 4: herbicidal effect by soil treatment (Table 19, symbol F); assay type: in vivo, southern crabgrass (Digitaria ciliaris)
# Summary of the method: as §1
# persian speedwell [11] = experiment: Test Example 4: herbicidal effect by soil treatment (Table 19, symbol R); assay type: in vivo, Persian speedwell (Veronica persica)
# Summary of the method: as §1
# velvetleaf [12] = experiment: Test Example 4: herbicidal effect by soil treatment (Table 19, symbol M); assay type: in vivo, velvetleaf (Abutilon theophrasti)
# Summary of the method: as §1
# redroot pigweed [13] = experiment: Test Example 4: herbicidal effect by soil treatment (Table 19, symbol N); assay type: in vivo, redroot pigweed (Amaranthus retroflexus)
# Summary of the method: as §1
# windgrass [14] = experiment: Test Example 4: herbicidal effect by soil treatment (Table 19, symbol L); assay type: in vivo, windgrass (Apera spica-venti)
# Summary of the method: as §1
# Italian ryegrass [15] = experiment: Test Example 4: herbicidal effect by soil treatment (Table 19, symbol K); assay type: in vivo, Italian ryegrass (Lolium multiflorum)
# Summary of the method: as §1
# windgrass [16] = experiment: Test Example 5: herbicidal effect by foliage application, plastic box (Table 20, symbol L); assay type: in vivo, windgrass (Apera spica-venti); details: foliage application, three weeks after application
# Summary of the method: as §2
# oval-leafed pondweed = experiment: Test Example 1: herbicidal activity, application before weed generation under submerged conditions (Table 16, symbol C); assay type: in vivo, oval-leafed pondweed (Monochoria vaginalis); details: 320 g/ha applied herbicide
# Summary of the method: as §3
# blackgrass [17] = experiment: Test Example 5: herbicidal effect by foliage application, plastic box (Table 20, symbol J); assay type: in vivo, blackgrass (Alopecurus myosuroides); details: foliage application, three weeks after application
# Summary of the method: as §2
# Italian ryegrass [18] = experiment: Test Example 5: herbicidal effect by foliage application, plastic box (Table 20, symbol K); assay type: in vivo, Italian ryegrass (Lolium multiflorum); details: foliage application, three weeks after application
# Summary of the method: as §2
# redroot pigweed [19] = experiment: Test Example 5: herbicidal effect by foliage application, plastic box (Table 20, symbol N); assay type: in vivo, redroot pigweed (Amaranthus retroflexus); details: foliage application, three weeks after application
# Summary of the method: as §2
# chickweed [20] = experiment: Test Example 5: herbicidal effect by foliage application, plastic box (Table 20, symbol P); assay type: in vivo, common chickweed (Stellaria media); details: foliage application, three weeks after application
# Summary of the method: as §2
# barnyard grass [21] = experiment: Test Example 4: herbicidal effect by soil treatment (Table 19, symbol H); assay type: in vivo, barnyard grass (Echinochloa crus-galli)
# Summary of the method: as §1
# Chinese sprangletop = experiment: Test Example 3: herbicidal effect by foliage application, Wagner pot (Table 18, symbol D); assay type: in vivo, chinese sprangletop (Leptochloa chinensis); details: 320 g/ha
# Summary of the method: as §4
# wild oat [22] = experiment: Test Example 5: herbicidal effect by foliage application, plastic box (Table 20, symbol I); assay type: in vivo, wild oat (Avena fatua); details: foliage application, three weeks after application
# Summary of the method: as §2
# barnyard grass [23] = experiment: Test Example 5: herbicidal effect by foliage application, plastic box (Table 20, symbol H); assay type: in vivo, barnyard grass (Echinochloa crus-galli); details: foliage application, three weeks after application
# Summary of the method: as §2
# Japanese bulrush = experiment: Test Example 1: herbicidal activity, application before weed generation under submerged conditions (Table 16, symbol B); assay type: in vivo, Japanese bulrush (Schoenoplectus juncoides); details: 320 g/ha applied herbicide
# Summary of the method: as §3
# lambsquarters [24] = experiment: Test Example 5: herbicidal effect by foliage application, plastic box (Table 20, symbol O); assay type: in vivo, lambsquarters (Chenopodium album); details: foliage application, three weeks after application
# Summary of the method: as §2
# barnyard grass [25] = experiment: Test Example 3: herbicidal effect by foliage application, Wagner pot (Table 18, symbol H); assay type: in vivo, barnyard grass (Echinochloa crus-galli); details: 320 g/ha
# Summary of the method: as §4
# [26] = amount of applied herbicide 320 g/ha
smiles,measurement,setting,value
CCCC(=O)Oc1c(C)nn(C)c(=O)c1-c1c(-c2ccccc2OCC)sc2ccccc12 [1-012],"herbicidal effect rating, P: chickweed",chickweed [1]; [26],0 (Herbicidal rate of 5% or less (almost no effect))
same,"herbicidal effect grade, G: green foxtail",green foxtail [2]; 320 g/ha,5 (Herbicidal rate of 90% or more (almost completely withered))
same,"herbicidal effect rating, J: blackgrass",blackgrass [3]; [26],5 (Herbicidal rate of 90% or more (almost completely withered))
same,Herbicidal effect on A: late watergrass (grade 0-5),late watergrass,3 (Herbicidal rate of 40% or more and less than 70%)
same,"herbicidal effect rating, G: green foxtail",green foxtail [4]; [26],5 (Herbicidal rate of 90% or more (almost completely withered))
same,"herbicidal effect on E (rice flat sedge), rating 0-5",rice flat sedge,5 (Herbicidal rate of 90% or more (almost completely withered))
same,"herbicidal effect grade, R: persian speedwell",persian speedwell [5]; 320 g/ha,5 (Herbicidal rate of 90% or more (almost completely withered))
same,"herbicidal effect grade, F: southern crabgrass",southern crabgrass [6]; 320 g/ha,5 (Herbicidal rate of 90% or more (almost completely withered))
same,"herbicidal effect grade, M: velvetleaf",velvetleaf [7]; 320 g/ha,3 (Herbicidal rate of 40% or more and less than 70%)
same,"herbicidal effect rating, I: wild oat",wild oat [8]; [26],1 (Herbicidal rate of 5% or more and less than 20%)
same,"herbicidal effect rating, O: lambsquarters",lambsquarters [9]; [26],0 (Herbicidal rate of 5% or less (almost no effect))
same,"herbicidal effect rating, F: southern crabgrass",southern crabgrass [10]; [26],4 (Herbicidal rate of 70% or more and less than 90%)
same,"herbicidal effect rating, R: persian speedwell",persian speedwell [11]; [26],0 (Herbicidal rate of 5% or less (almost no effect))
same,"herbicidal effect rating, M: velvetleaf",velvetleaf [12]; [26],0 (Herbicidal rate of 5% or less (almost no effect))
same,"herbicidal effect rating, N: redroot pigweed",redroot pigweed [13]; [26],0 (Herbicidal rate of 5% or less (almost no effect))
same,"herbicidal effect rating, L: windgrass",windgrass [14]; [26],3 (Herbicidal rate of 40% or more and less than 70%)
same,"herbicidal effect rating, K: Italian ryegrass",Italian ryegrass [15]; [26],0 (Herbicidal rate of 5% or less (almost no effect))
same,"herbicidal effect grade, L: windgrass",windgrass [16]; 320 g/ha,4 (Herbicidal rate of 70% or more and less than 90%)
same,Herbicidal effect on C: oval-leafed pondweed (grade 0-5),oval-leafed pondweed,3 (Herbicidal rate of 40% or more and less than 70%)
same,"herbicidal effect grade, J: blackgrass",blackgrass [17]; 320 g/ha,4 (Herbicidal rate of 70% or more and less than 90%)
same,"herbicidal effect grade, K: Italian ryegrass",Italian ryegrass [18]; 320 g/ha,3 (Herbicidal rate of 40% or more and less than 70%)
same,"herbicidal effect grade, N: redroot pigweed",redroot pigweed [19]; 320 g/ha,3 (Herbicidal rate of 40% or more and less than 70%)
same,"herbicidal effect grade, P: chickweed",chickweed [20]; 320 g/ha,5 (Herbicidal rate of 90% or more (almost completely withered))
same,"herbicidal effect rating, H: barnyard grass",barnyard grass [21]; [26],5 (Herbicidal rate of 90% or more (almost completely withered))
same,"herbicidal effect on D (Chinese sprangletop), rating 0-5",Chinese sprangletop,0 (Herbicidal rate of 5% or less (almost no effect))
same,"herbicidal effect grade, I: wild oat",wild oat [22]; 320 g/ha,4 (Herbicidal rate of 70% or more and less than 90%)
same,"herbicidal effect grade, H: barnyard grass",barnyard grass [23]; 320 g/ha,5 (Herbicidal rate of 90% or more (almost completely withered))
same,Herbicidal effect on B: Japanese bulrush (grade 0-5),Japanese bulrush,1 (Herbicidal rate of 5% or more and less than 20%)
same,"herbicidal effect grade, O: lambsquarters",lambsquarters [24]; 320 g/ha,2 (Herbicidal rate of 20% or more and less than 40%)
same,"herbicidal effect on H (barnyard grass), rating 0-5",barnyard grass [25],5 (Herbicidal rate of 90% or more (almost completely withered))
Cc1nn(C)c(=O)c(-c2c(-c3ccc(OS(C)(=O)=O)cc3)sc3ccccc23)c1O [1-146],"P: chickweed, herbicidal effect rating",chickweed [1]; AAH 320 g/ha,4 (Herbicidal rate of 70% or more and less than 90%)
same,"G: green foxtail, herbicidal effect",green foxtail [2]; AAH 320 g/ha,5 (Herbicidal rate of 90% or more (almost completely withered))
same,"J: blackgrass, herbicidal effect rating",blackgrass [3]; AAH 320 g/ha,0 (Herbicidal rate of 5% or less (almost no effect))
same,Herbicidal effect on A: late watergrass (grade 0-5),late watergrass,3 (Herbicidal rate of 40% or more and less than 70%)
same,"G: green foxtail, herbicidal effect rating",green foxtail [4]; AAH 320 g/ha,5 (Herbicidal rate of 90% or more (almost completely withered))
same,"R: persian speedwell, herbicidal effect",persian speedwell [5]; AAH 320 g/ha,5 (Herbicidal rate of 90% or more (almost completely withered))
same,"F: southern crabgrass, herbicidal effect",southern crabgrass [6]; AAH 320 g/ha,4 (Herbicidal rate of 70% or more and less than 90%)
same,"M: velvetleaf, herbicidal effect",velvetleaf [7]; AAH 320 g/ha,4 (Herbicidal rate of 70% or more and less than 90%)
same,"I: wild oat, herbicidal effect rating",wild oat [8]; AAH 320 g/ha,0 (Herbicidal rate of 5% or less (almost no effect))
same,"O: lambsquarters, herbicidal effect rating",lambsquarters [9]; AAH 320 g/ha,5 (Herbicidal rate of 90% or more (almost completely withered))
same,"F: southern crabgrass, herbicidal effect rating",southern crabgrass [10]; AAH 320 g/ha,4 (Herbicidal rate of 70% or more and less than 90%)
same,"R: persian speedwell, herbicidal effect rating",persian speedwell [11]; AAH 320 g/ha,5 (Herbicidal rate of 90% or more (almost completely withered))
same,"M: velvetleaf, herbicidal effect rating",velvetleaf [12]; AAH 320 g/ha,5 (Herbicidal rate of 90% or more (almost completely withered))
same,"N: redroot pigweed, herbicidal effect rating",redroot pigweed [13]; AAH 320 g/ha,5 (Herbicidal rate of 90% or more (almost completely withered))
same,"L: windgrass, herbicidal effect rating",windgrass [14]; AAH 320 g/ha,0 (Herbicidal rate of 5% or less (almost no effect))
same,"K: Italian ryegrass, herbicidal effect rating",Italian ryegrass [15]; AAH 320 g/ha,4 (Herbicidal rate of 70% or more and less than 90%)
same,"L: windgrass, herbicidal effect",windgrass [16]; AAH 320 g/ha,0 (Herbicidal rate of 5% or less (almost no effect))
same,Herbicidal effect on C: oval-leafed pondweed (grade 0-5),oval-leafed pondweed,0 (Herbicidal rate of 5% or less (almost no effect))
same,"J: blackgrass, herbicidal effect",blackgrass [17]; AAH 320 g/ha,1 (Herbicidal rate of 5% or more and less than 20%)
same,"K: Italian ryegrass, herbicidal effect",Italian ryegrass [18]; AAH 320 g/ha,5 (Herbicidal rate of 90% or more (almost completely withered))
same,"N: redroot pigweed, herbicidal effect",redroot pigweed [19]; AAH 320 g/ha,3 (Herbicidal rate of 40% or more and less than 70%)
same,"P: chickweed, herbicidal effect",chickweed [20]; AAH 320 g/ha,5 (Herbicidal rate of 90% or more (almost completely withered))
same,"H: barnyard grass, herbicidal effect rating",barnyard grass [21]; AAH 320 g/ha,5 (Herbicidal rate of 90% or more (almost completely withered))
same,"herbicidal effect on D (Chinese sprangletop), rating 0-5",Chinese sprangletop,2 (Herbicidal rate of 20% or more and less than 40%)
same,"I: wild oat, herbicidal effect",wild oat [22]; AAH 320 g/ha,0 (Herbicidal rate of 5% or less (almost no effect))
same,"H: barnyard grass, herbicidal effect",barnyard grass [23]; AAH 320 g/ha,5 (Herbicidal rate of 90% or more (almost completely withered))
same,Herbicidal effect on B: Japanese bulrush (grade 0-5),Japanese bulrush,0 (Herbicidal rate of 5% or less (almost no effect))
same,"O: lambsquarters, herbicidal effect",lambsquarters [24]; AAH 320 g/ha,3 (Herbicidal rate of 40% or more and less than 70%)
same,"herbicidal effect on H (barnyard grass), rating 0-5",barnyard grass [25],5 (Herbicidal rate of 90% or more (almost completely withered))
